What was measured:
Coagulation factor X [1] = target: T1, Coagulation factor X (Homo sapiens, UniProt P00742)
Prothrombin = Prothrombin (Homo sapiens, UniProt P00734); assay: In vitro inhibitory constant against human thrombin (FIIa).
Serine protease 1 [2] = target: T2, Serine protease 1 (Homo sapiens, UniProt P07477)
Serine protease 1 [3] = target: T2, Serine protease 1; remark: listed apart in the source
Coagulation factor X [4] = target: T1, Coagulation factor X; remark: listed apart in the source

T1 sequence (P00742 41-179 limits assumed): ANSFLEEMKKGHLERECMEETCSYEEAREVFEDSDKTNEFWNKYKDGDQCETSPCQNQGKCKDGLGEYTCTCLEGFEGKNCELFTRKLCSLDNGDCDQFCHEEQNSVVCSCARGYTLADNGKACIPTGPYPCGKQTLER
T1 sequence (P00742 235-488 limits assumed): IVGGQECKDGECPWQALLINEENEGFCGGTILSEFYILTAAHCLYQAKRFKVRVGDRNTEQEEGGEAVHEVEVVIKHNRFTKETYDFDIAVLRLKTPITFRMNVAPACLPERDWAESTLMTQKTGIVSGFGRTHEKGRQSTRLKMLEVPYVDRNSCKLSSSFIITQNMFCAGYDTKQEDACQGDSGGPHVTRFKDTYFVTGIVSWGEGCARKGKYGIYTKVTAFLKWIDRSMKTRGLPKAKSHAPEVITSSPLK
T2 sequence (P07477 whole entry): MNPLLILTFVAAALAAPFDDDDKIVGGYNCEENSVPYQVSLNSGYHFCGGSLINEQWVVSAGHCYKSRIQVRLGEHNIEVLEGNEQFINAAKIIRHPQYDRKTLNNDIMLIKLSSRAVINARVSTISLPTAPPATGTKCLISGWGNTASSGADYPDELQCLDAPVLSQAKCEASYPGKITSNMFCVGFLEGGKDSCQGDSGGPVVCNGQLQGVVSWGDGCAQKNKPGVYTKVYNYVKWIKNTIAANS

| Structure (SMILES) | Ki (Coagulation factor X [1]) | Ki (Prothrombin) | Ki (Serine protease 1 [2]) | Ki (Serine protease 1 [3]) | Ki (Coagulation factor X [4]) |
| --- | --- | --- | --- | --- | --- |
| Cc1nc(N)ncc1CNC(=O)Cn1c(C)cnc(NCCc2ccc3c(c2)CCO3)c1=O | Not Active | 324 nM | Not Active | – | – |
| Cc1cnc(NCCc2ccccc2)c(=O)n1CC(=O)NCc1cnc(N)cn1 | Not Active | – | Not Active | – | – |
| Cc1ccc(NS(=O)(=O)Cc2ccccc2)c(=O)n1CC(=O)NCc1nc(CN)cs1 | – | 136 nM | – | > 168 nM | > 338 nM |
| Cc1nc(N)ncc1CNC(=O)Cn1c(C)cnc(NCCc2ccccc2)c1=O | Not Active | 197 nM | Not Active | – | – |
| Cc1ccc(NS(=O)(=O)Cc2ccccc2)c(=O)n1CC(=O)NCc1cnc(N)cn1 | Not Active | 158 nM | Not Active | – | – |
| Cc1cnc(NCCc2ccccc2)c(=O)n1CC(=O)NCc1ccc(C(=N)N)cc1 | Not Active | – | – | 19.7 nM | – |
| Cc1cnc(NCCc2ccccc2)c(=O)n1CC(=O)NCc1cnc(N)nc1 | Not Active | 357 nM | Not Active | – | – |
| COc1cccc(S(=O)(=O)Nc2cccn(CC(=O)NCc3ccc(C(=N)N)cc3)c2=O)c1 | – | 5.3 nM | – | 18.7 nM | 153 nM |
| Cc1nc(N)ncc1CNC(=O)Cn1c(C)cnc(NCC(F)(F)c2ccccc2)c1=O | Not Active | 141 nM | Not Active | – | – |
| Cc1cnc(NCCc2ccccc2)c(=O)n1CC(=O)NC[C@@H]1CNC(N)=N[C@@H]1C | Not Active | 3.2 nM | Not Active | – | – |
| Cc1ccc(NS(=O)(=O)Cc2ccccc2)c(=O)n1CC(=O)NCc1ccc(C(=N)N)c(F)c1 | Not Active | 3.6 nM | Not Active | – | – |
| Cc1cnc(NCCc2ccccc2)c(=O)n1CC(=O)NCc1ccc(C(=N)NO)s1 | Not Active | 30.8 nM | Not Active | – | – |
| Cc1ccc(NS(=O)(=O)Cc2ccccc2)c(=O)n1CC(=O)NCc1ccc(C(=N)N)s1 | – | 0.1 nM | – | 13.6 nM | 96.4 nM |
| Cc1cnc(NCC2(c3ccc(Cl)cc3)CCC2)c(=O)n1CC(=O)NCc1cnc(N)cn1 | Not Active | 5.5 nM | Not Active | – | – |
| Cc1nc(N)ncc1CNC(=O)Cn1c(C)ccc(NS(=O)(=O)Cc2cccc3c2OCCO3)c1=O | Not Active | – | Not Active | – | – |
| Cc1nc(N)nc(C)c1CNC(=O)Cn1c(C)ccc(NS(=O)(=O)Cc2ccccc2)c1=O | Not Active | 281 nM | Not Active | – | – |
| Cc1ccc(NS(=O)(=O)Cc2ccccc2)c(=O)n1CC(=O)NCc1ccc(C(=N)N)cc1 | Not Active | 0.37 nM | – | 49.3 nM | – |

| Structure (SMILES) | Ki (Coagulation factor X [1]) | Ki (Prothrombin) | Ki (Serine protease 1 [2]) | Ki (Serine protease 1 [3]) | Ki (Coagulation factor X [4]) |
| --- | --- | --- | --- | --- | --- |
| Cc1cnc(NCC(F)(F)c2ccc(F)cc2)c(=O)n1CC(=O)NCc1cnc(N)cn1 | Not Active | 5.9 nM | Not Active | – | – |
| Cc1ccc(NS(=O)(=O)Cc2ccccc2)c(=O)n1CC(=O)NCc1cnc(N)nc1 | Not Active | 462 nM | Not Active | – | – |
| COc1cccc(S(=O)(=O)Nc2cccn(CC(=O)NCc3nc(C(=N)N)cs3)c2=O)c1 | – | 5.9 nM | – | > 168 nM | 179 nM |
| Cc1ccc(NS(=O)(=O)Cc2ccccc2)c(=O)n1CC(=O)NCC1CN=C(N)NC1 (stereo unspecified) | Not Active | 1 nM | Not Active | – | – |
| COC(=O)c1ccc(F)cc1CS(=O)(=O)Nc1ccc(C)n(CC(=O)N[C@H](CCCN=C(N)N)C(=O)O)c1=O | – | 0.1 nM | – | 16.6 nM | 1810 nM |
| Cc1ccc(NS(=O)(=O)Cc2ccccc2)c(=O)n1CC(=O)NC[C@@H]1CNC(N)=N[C@@H]1C | Not Active | 1.1 nM | Not Active | – | – |
| Cc1cnc(NCCc2ccccc2)c(=O)n1CC(=O)NCc1ccc(C(=N)N)s1 | Not Active | 0.12 nM | – | 4.4 nM | – |
| COc1cccc(S(=O)(=O)Nc2cccn(CC(=O)NCc3ccc(C(=N)N)cc3F)c2=O)c1 | – | 6 nM | – | 31.3 nM | 249 nM |
| Cc1cnc(NCC(F)(F)c2ccccc2)c(=O)n1CC(=O)NCc1cnc(N)cn1 | Not Active | 9.8 nM | Not Active | – | – |
| COc1cccc(S(=O)(=O)Nc2cccn(CC(=O)NCc3ccc(C(=N)N)cc3Cl)c2=O)c1 | – | 20.8 nM | – | 76.5 nM | – |
| Cc1nc(N)ncc1CNC(=O)Cn1c(C)ccc(NS(=O)(=O)Cc2ccccc2)c1=O | Not Active | 85.2 nM | Not Active | – | – |
| COc1cccc(S(=O)(=O)Nc2cccn(CC(=O)NCc3ccc(C(=N)N)cc3OC)c2=O)c1 | – | 1.6 nM | – | 11.9 nM | 76.8 nM |
| Cc1cnc(NCCc2ccccc2)c(=O)n1CC(=O)NCc1ccc(C(=N)NO[Si](C)(C)C(C)(C)C)s1 | Not Active | 13.2 nM | Not Active | – | – |
| Cc1cnc(NCCc2ccccc2)c(=O)n1CC(=O)NCC1CN=C(N)NC1 (stereo unspecified) | Not Active | 1.9 nM | Not Active | – | – |
| Cc1ccc(NS(=O)(=O)Cc2ccccc2F)c(=O)n1CC(=O)N[C@H](CCCNC(=N)N)C(=O)O [CVS-2359] | – | 0.14 nM | – | 12.4 nM | 674 nM |
| Cc1nc(N)ccc1CNC(=O)Cn1c(C)ccc(NS(=O)(=O)Cc2ccccc2)c1=O [L-374087] | – | 0.68 nM | Not Active | – | – |
| Cc1nc(N)ccc1CNC(=O)Cn1c(C)cnc(NCCc2ccccc2)c1=O [L-375378] | – | 1 nM | Not Active | – | – |
